Tests used:
Format in all cases: functional
[1] = tested on: Human immunodeficiency virus 1; test: Antiviral activity against Human immunodeficiency virus 1 clone 2253 harboring integrase S17N, V31I, I72V, L101I, T124A, K156N,V201I, I220M, D279G, R284G mutation transfected into human C8166 cells assessed as decrease in compound susceptibility relative to wild-type
[2] = tested on: Human immunodeficiency virus 1; test: Antiviral activity against Human immunodeficiency virus 1 clone 1288 harboring integrase M154L and E11D, V31I, L101I, K160R, F181L,V201I, T206S, D256E mutation transfected into human C8166 cells assessed as decrease in compound susceptibility relative to wild-type
[3] = tested on: Human immunodeficiency virus 1; test: Antiviral activity against Human immunodeficiency virus 1 clone 4736_2 harboring integrase N155H,T97A and D6E, S17N, R20K, D25E, S39C, L45V,L101I, V201I, S119R, T124A, K160T, K211R, D288N mutation transfected into human C8166 cells assessed as decrease in compound susceptibility relative to wild-type
[4] = tested on: Human immunodeficiency virus 1; test: (§1) Antiviral activity against Human immunodeficiency virus 1 clone 4736_4 harboring integrase N155H, E92Q and D6E, S17N, R20K, D25E, S39C, L45V, L101I, T124A, K160T, V201I, K211R, D288N mutation transfected in human C8166 cells assessed as decrease in compound susceptibility relative to wild-type
[5] = tested on: Human immunodeficiency virus 1; test: as §1, with “4736_9” for “4736_4”, “E92Q H51Y” for “E92Q”, “S39C, D41H,” for “S39C,”, “V201I,K211R,” for “V201I, K211R,”
[6] = tested on: Human immunodeficiency virus 1; test: as §1, with “4736_10” for “4736_4”, “V151I, G163R” for “E92Q”
[7] = tested on: Human immunodeficiency virus 1; test: Antiviral activity against Human immunodeficiency virus 1 clone 1556 harboring integrase Y143C, L74M, T97A, S230R, K7R, S17N, R20K, L101I, K111Q, T112K, S119R, T206S, D256E, V259I mutation transfected in human C8166 cells assessed as decrease in compound susceptibility relative to wild-type
[8] = tested on: Human immunodeficiency virus 1; test: Antiviral activity against Human immunodeficiency virus 1 clone 8070_1 harboring integrase G140S, Y143H,Q148H and K14R, L101I, T112A, G193E, D229E, D279G mutation in transfected in human C8166 cells assessed as decrease in compound susceptibility relative to wild-type
[9] = tested on: Human immunodeficiency virus 1; test: Antiviral activity against Human immunodeficiency virus 1 clone 8070_2 harboring integrase G140S, Q148H, K14R, L63I, L101I, T112A, G193E, D229E, D279G mutation transfected in human C8166 cells assessed as decrease in compound susceptibility relative to wild-type
[10] = tested on: Human immunodeficiency virus 1; test: Antiviral activity against Human immunodeficiency virus 1 clone 4378 harboring integrase E157Q V31I, V32I, S39C, I72V, L101I, K160Q, F181L, V201I, Q216H, A265V mutation transfected in human C8166 cells assessed as decrease in compound susceptibility relative to wild-type

Q: How did the “fold change (FC)” value [1] turn out when Cc1nnc(C(=O)NC(C)(C)c2nc(C(=O)NCc3ccc(F)cc3)c(O)c(=O)n2C)o1 [RALTEGRAVIR] was run?
A: The value was 0.4.

Q: And the “fold change (FC)” value [2]?
A: The value was 1.06.

Q: And the “fold change (FC)” value [3]?
A: Its value is 116.

Q: And the “fold change (FC)” value [4]?
A: The value was 96.

Q: What about the “fold change (FC)” value [5] of the same compound?
A: Its value is 94.

Q: And the “fold change (FC)” value [6]?
A: The value was 48.

Q: And the “fold change (FC)” value [7]?
A: Its value is greater than 200.

Q: What about the “fold change (FC)” value [8] of the same compound?
A: The value was greater than 200.

Q: And the “fold change (FC)” value [9]?
A: Its value is greater than 200.

Q: What about the “fold change (FC)” value [10] of the same compound?
A: The value was 1.15.

Source: ChEMBL document CHEMBL1240352, “Panel of prototypical raltegravir-resistant infectious molecular clones in a novel integrase-deleted cloning vector” (2010)
